Data on 1 molecule can be found in patent EP4361137A1, “PRUNE1 INHIBITORS AND THERAPEUTIC USE THEREOF” (CEINGE Biotecnologie Avanzate Franco Salvatore s.c. a r.l., priority 2022, dated 2024).

The structures appear in SMILES notation.

Assay [1] addresses T1, c-Prune1 (354-453) (Homo sapiens, UniProt Q86TP1).
T1 construct: 20 µM of c-Prune1 (354-453) protein was labelled with 60 µM of NT-647-NHS reactive dye; made in house
T1 sequence (Q86TP1 354-453): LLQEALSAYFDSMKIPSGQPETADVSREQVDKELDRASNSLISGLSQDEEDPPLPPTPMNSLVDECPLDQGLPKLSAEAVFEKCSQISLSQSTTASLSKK
Briefly: NMR and microscale thermophoresis interaction study. Type of assay: binding. As to conditions: KD not given. The method, then: For interaction studies, samples (total volume, 600 µL) were prepared in 5-mm NMR tubes, using 1mM of AA7.5 and 10µM of C-prune1 (AA7.5/C-prune1 molar ratio of 100:1) in H2O/^2H2O mixture at pH 6.8. STD spectra were acquired with 512 scans with onresonance irradiation at -0.5 ppm for selective saturation of protein resonances and off-resonance irradiation at 30 ppm for reference spectra. A train of 40 Gaussian-shaped pulses of 50 milliseconds with 1-millisecond delay between pulses were used, for a total saturation time of 2 seconds. […]
1H and STD spectra of AA7.5 alone were acquired as reference. […] Relative STD values were calculated by dividing STD signal intensities by the intensities of the corresponding signals in a 1D 1H NMR reference spectrum of the same sample recorded with 512 scans and similarly processed. […] To determine the per residue chemical shift perturbation upon binding and account for differences in spectral widths between ^15N and ^1H resonances, weighted average chemical shift differences, ΔδHN , were calculated for the amide ^15N and ^1H resonances, using equation: ΔδHN = ([((ΔHN))^2+((0.17×Δ^15N))^2])^((1)/(2)) [formula] where ΔH and ΔN are the differences between free and bound chemical shifts. […]
(Microscale thermophoresis detects binding through changes in fluorescence in a small temperature gradient.)

Assay [2] deals with D425-MED cells. Briefly: Real-time cell proliferation assay (cell index, xCELLigence). Type of assay: cell-based, human. Conditions: D425-Med cells. As to the method:
J774A.1 murine macrophages (referred to as J774 cells; ATCC: #TIB-67), MMTV-Prune1-Wnt1 cells were grown in high-glucose Dulbecco's modified Eagle's medium (DMEM; Euroclone) supplemented with 20% (v/v) FBS, 2 mM L-glutamine, and 1% (v/v) antibiotics (Pen/Strep). D425-MED, D425-MED-Luc and […] cells were grown in high-glucose Dulbecco's modified Eagle's medium (DMEM; Euroclone) and Iscove's Modified Dulbecco's Medium (IMDM; Sigma) at 1:1 (v/v) dilution supplemented with 20% (v/v) FBS, 2 mM L-glutamine, 1% non-essential amino acid solution (M7145; Sigma-Aldrich/Merck), and 1% (v/v) antibiotics (Pen/Strep). The cells were grown at 37 °C in a humidified atmosphere of 95% air, 5% CO2 (v/v).
D425.MED and MMTV-Prune1/Wnt1 cells were plated and treated with increasing concentrations of LEO-AA7.5(S)T for 24 hours. Water-treated cells were used as negative control for the experiments.
Cellular proliferation rates were determined with the xCELLigence system (Roche). D425-MED, MATH-Prune1/TP53-/- and MMTV-Prune1/Wnt1 cells (8 × 10^3) were treated with increasing concentrations of LEO-AA7.5(S)T, harvested, and then added to a single well of an xCELLigence E-plate 16. The proliferation rates were determined at 2-min intervals by measuring the impedance changes across the electrodes at the bottoms of the wells. These cell index values were calculated by the xCELLigence RTCA software. with vehicle-treated cells were the negative control. Impedance was measured every 2 min over 24 hours. The IC50 values were calculated through nonlinear regression analysis performed with Graph Pad Prism 9 ([inhibitor] vs. response (three parameters). Data are means ± SD of three independent experiments.

For assay [3], the system named is CCL2. Briefly: ELISA of CCL2 in sera of implanted mice. As to conditions: 6 mg/kg/day intraperitoneally for seven days; n.5 per group. Type of assay: in vivo, FVB WT mice. As to the method:
ELISA assay ([…]) was performed by following the manufacturer instruction, to measure the levels of CCL2 cytokine in the sera from immunocompetent syngeneic mice orthotopically implanted with MATH1-Prune1/ TP53-/- cells and treated intraperitoneally for seven days with LEO-AA7.5(S)T (n.5) at 6 mg/kg/day, or with water (n.5) as the vehicle control group.
A general note: An ELISA detects its analyte on a solid surface through an enzyme-linked reagent.

For `COc1ccc(CNc2ncnc(N3CCC[C@H](CO)C3)n2)cc1.Cl` [LEO-AA7.5(S)T, (S)-(1-(4-((4-methoxybenzyl)amino)-1,3,5-triazin-2-yl)piperidin-3-yl)methanol HCl salt], the “binding to Prune1 protein at its Carboxyl-terminus domain” value in assay [1] is reported as “binds Prune1 protein”. In addition, the “cell proliferation rate, combination with Vincristine” value in assay [2] (10 µM added to 10 nM or 1 nM Vincristine) is on record as “reduces the cell proliferation rate”. For the same molecule, in assay [2] (10 µM plus 22.5 µM Seclidemstat), the “inhibition of cell proliferation, combination with Seclidemstat [SP-2577]” value is on record as “enhance the inhibition of cell proliferation”. The “half maximal inhibitory concentration (IC50) for the inhibition of cell proliferation index” value in assay [2] (impedance every 2 min over 24 h) is recorded as 71 µM. Moreover, the “sera circulating CCL2” value in assay [3] is listed as “decreased levels”.
